Experimental data published in US20040115813A1, “Real time measurement of cellular responses” (priority 2002, published 2004).

Assays:
Format in all cases: cell-based, human
HT-1080-dual-6 cells = assay: Real time observation of apoptotic process in vitro by fluorescence microscopy; conditions: 2 μM staurosporine; for apoptosis induction: imaged every 2 hours up to 12 hours; for nuclear/cytoplasmic morphology during apoptosis: images at 2-12 hours
Experimental: HT-1080-dual-6 cells were incubated with 2 μM staurosporine for apoptosis induction. The cells were visualized under blue light and images were captured with a CCD camera and fluorescence microscope. […] Bar, 50 μm. […] Bar, 10 μm.
To capture the images of real time apoptotic processes, the HT-1080-dual-6 clone was used. Staurosporine (Alexis, San Diego, Calif.), dissolved in DMSO and stored at −80 degrees, was used for induction of apoptosis. 3×10^5 cells were seeded in a 25 cm^2 flask with RPMI 1640 with 10% FBS. Staurosporine was added the next day at a concentration of 2 μM. Every 2 hours, the flask was set under the fluorescent stereo microscope and real time images were captured at each time point.

PC-3 dual cells [1] = assay: DNA extraction and agarose gel electrophoresis (1.8%) for DNA fragmentation; conditions: Taxol 0.8 μg/ml
Experimental: (§1) PC-3 dual cells were treated with Taxol™ (0.8 ug/ml); thymidine (2 mM), and vinblastine (60 nM). Real-time imaging was done at 0, 12, 24, 36, and 48 hours. Cells were collected for DNA extraction and agarose gel electrophoresis (1.8%) analysis. […] The nuclear ring structures were […] by 24 hours.

PC-3 dual cells [2] = assay: Real-time visualization of drug-induced apoptosis and nuclear morphology in dual-labeled cells
Source text: The dual-color cells could be easily placed in their cell cycle position by the “nuclear-cytoplasmic” ratio as observed in living cells. For fluorescence microscopy of these cells, a Leica fluorescence stereo microscope model LZ12 equipped with a mercury 50W lamp power supply was used. To visualize both GFP and RFP fluorescence at the same time, excitation was produced through a D425/60 band pass filter, 470 DCXR dichroic mirror, and emitted fluorescence was collected through a long pass filter GG475 (Chroma Technology, Brattleboro, Vt.).
as §1

**Q.** Which apoptosis induction (HT-1080-dual-6 cells) does the source give for `CN[C@@H]1C[C@H]2O[C@@](C)([C@@H]1OC)n1c3ccccc3c3c4c(c5c6ccccc6n2c5c31)C(=O)NC4` [Staurosporine] here?
**A.** Its apoptosis induction is “induced apoptosis”.

**Q.** What about the apoptosis induction (HT-1080-dual-6 cells; listed as staurosporine) of the same compound?
**A.** Its apoptosis induction is “Apoptosis was well induced”.

**Q.** What about the “nuclear/cytoplasmic morphology during apoptosis” value (HT-1080-dual-6 cells) of the same compound?
**A.** The value was “Progressive fragmentation of nucleus”.

**Q.** And the “nuclear/cytoplasmic morphology during apoptosis” value (HT-1080-dual-6 cells; listed as staurosporine)?
**A.** The value was “condensation of cytoplasm and nucleus and fragmentation of nucleus”.

**Q.** Which results are given for `CC(=O)O[C@H]1C(=O)[C@@]2(C)[C@H]([C@H](OC(=O)c3ccccc3)[C@]3(O)C[C@H](OC(=O)[C@H](O)[C@@H](NC(=O)c4ccccc4)c4ccccc4)C(C)=C1C3(C)C)[C@]1(OC(C)=O)CO[C@@H]1C[C@@H]2O` [Taxol™, Paclitaxel]?
**A.** DNA fragmentation by gel electrophoresis (PC-3 dual cells [1]; 24 hours): before DNA fragmentation occurred; DNA fragmentation by gel electrophoresis (PC-3 dual cells [1]; 48 hours): DNA fragmentation could be observed; effect on nuclei (morphology) (PC-3 dual cells [2]; Taxol 0.8 μg/ml, by 24 hours): form a ring-shaped structure; apoptosis (aberrant nuclear structures and fragmentation) (PC-3 dual cells [2]; Taxol 0.8 μg/ml, by 48 hours): entering apoptosis with very aberrant nuclear structures and fragmentation

**Q.** For `CC[C@]1(O)C[C@@H]2CN(CCc3c([nH]c4ccccc34)[C@@](C(=O)OC)(c3cc4c(cc3OC)N(C)[C@H]3[C@@](O)(C(=O)OC)[C@H](OC(C)=O)[C@]5(CC)C=CCN6CC[C@]43[C@@H]65)C2)C1` [vinblastine], which “effect on cell nuclei and cytoplasm (morphology)” value (PC-3 dual cells [2]; vinblastine 60 nM) is on record?
**A.** The value was “nuclei became more condensed and the cytoplasm appeared to expand”.
